# Test results taken from ChEMBL document CHEMBL3044830, “Synthesis, characterization, antibacterial, antifungal, and immunomodulating activities of gatifloxacin derivatives” (Med Chem Res, 2010).
# How the values were obtained:
# Bacillus subtilis [1] = experiment: Antibacterial activity against Bacillus subtilis assessed as concentration required to obtain a zone of inhibition of 20 mm after 18 to 24 hr by disk diffusion method; format: functional
# Trichophyton rubrum [2] = experiment: Antifungal activity against Trichophyton rubrum assessed as zone of inhibition at 5 to 40 ug/ml after 7 days by disk diffusion method relative to gatifloxacin; format: functional
# [3] = Antibacterial activity against Hofmanni bacterium assessed as zone of inhibition after 18 to 24 hr by disc diffusion method relative to gatifloxacin
# [4] = Antibacterial activity against Hofmanni bacterium assessed as concentration required to obtain a zone of inhibition of 10 mm after 18 to 24 hr by disc diffusion method
# Klebsiella pneumoniae [5] = experiment: Antibacterial activity against Klebsiella pneumoniae assessed as concentration required to obtain a zone of inhibition of 5 mm after 18 to 24 hr by disk diffusion method; format: functional
# Klebsiella pneumoniae [6] = experiment: Antibacterial activity against Klebsiella pneumoniae assessed as concentration required to obtain a zone of inhibition of 10 mm after 18 to 24 hr by disk diffusion method; format: functional
# Fusarium solani [7] = experiment: Antifungal activity against Fusarium solani assessed as concentration required to obtain a zone of inhibition of 40 mm after 7 days by disk diffusion method; format: functional
# Proteus mirabilis [8] = experiment: Antibacterial activity against Proteus mirabilis assessed as concentration required to obtain a zone of inhibition of 5 mm after 18 to 24 hr by disc diffusion method; format: functional
# Bacillus subtilis [9] = experiment: Antibacterial activity against Bacillus subtilis assessed as zone of inhibition at 5 to 40 ug/ml after 18 to 24 hr by disk diffusion method relative to gatifloxacin; format: functional
# Escherichia coli [10] = experiment: Antibacterial activity against Escherichia coli assessed as concentration required to obtain a zone of inhibition of 5 mm after 18 to 24 hr by disk diffusion method; format: functional
# Escherichia coli [11] = experiment: Antibacterial activity against Escherichia coli assessed as zone of inhibition at 5 to 40 ug/ml after 18 to 24 hr by disk diffusion method relative to gatifloxacin; format: functional
# Pseudomonas aeruginosa [12] = experiment: Antibacterial activity against Pseudomonas aeruginosa assessed as concentration required to obtain a zone of inhibition of 20 mm after 18 to 24 hr by disk diffusion method; format: functional
# Saccharomyces cerevisiae = experiment: Antifungal activity against Saccharomyces cerevisiae assessed as zone of inhibition at 5 to 40 ug/ml after 7 days by disk diffusion method relative to gatifloxacin; format: functional
# Bacillus subtilis [13] = experiment: Antibacterial activity against Bacillus subtilis assessed as concentration required to obtain a zone of inhibition of 5 mm after 18 to 24 hr by disk diffusion method; format: functional
# Shigella sp. [14] = experiment: Antibacterial activity against Shigella typhi assessed as zone of inhibition after 18 to 24 hr by disc diffusion method relative to gatifloxacin; format: functional
# Citrobacter [15] = experiment: Antibacterial activity against Citrobacter assessed as zone of inhibition at 5 to 40 ug/ml after 18 to 24 hr by disk diffusion method relative to gatifloxacin; format: functional
# Shigella flexneri [16] = experiment: Antibacterial activity against Shigella flexneri assessed as zone of inhibition at 5 to 40 ug/ml after 18 to 24 hr by disk diffusion method relative to gatifloxacin; format: functional
# Citrobacter [17] = experiment: Antibacterial activity against Citrobacter assessed as concentration required to obtain a zone of inhibition of 10 mm after 18 to 24 hr by disk diffusion method; format: functional
# Shigella flexneri [18] = experiment: Antibacterial activity against Shigella flexneri assessed as concentration required to obtain a zone of inhibition of 20 mm after 18 to 24 hr by disk diffusion method; format: functional
# Staphylococcus aureus = experiment: Antibacterial activity against methicillin-resistant Staphylococcus aureus assessed as zone of inhibition at 5 to 40 ug/ml after 18 to 24 hr by disk diffusion method relative to gatifloxacin; format: functional
# [19] = Antibacterial activity against Hofmanni bacterium assessed as concentration required to obtain a zone of inhibition of 20 mm after 18 to 24 hr by disc diffusion method
# Citrobacter [20] = experiment: Antibacterial activity against Citrobacter assessed as concentration required to obtain a zone of inhibition of 20 mm after 18 to 24 hr by disk diffusion method; format: functional
# Proteus mirabilis [21] = experiment: Antibacterial activity against Proteus mirabilis assessed as zone of inhibition at 5 to 40 ug/ml after 18 to 24 hr by disc diffusion method relative to gatifloxacin; format: functional
# Pseudomonas aeruginosa [22] = experiment: Antibacterial activity against Pseudomonas aeruginosa assessed as concentration required to obtain a zone of inhibition of 10 mm after 18 to 24 hr by disk diffusion method; format: functional
# Candida albicans [23] = experiment: Antifungal activity against Candida albicans assessed as concentration required to obtain a zone of inhibition of 40 mm after 7 days by disk diffusion method; format: functional
# Shigella flexneri [24] = experiment: Antibacterial activity against Shigella flexneri assessed as concentration required to obtain a zone of inhibition of 5 mm after 18 to 24 hr by disk diffusion method; format: functional
# Escherichia coli [25] = experiment: Antibacterial activity against Escherichia coli assessed as concentration required to obtain a zone of inhibition of 20 mm after 18 to 24 hr by disk diffusion method; format: functional
# [26] = Antibacterial activity against Hofmanni bacterium assessed as concentration required to obtain a zone of inhibition of 5 mm after 18 to 24 hr by disc diffusion method
# Shigella flexneri [27] = experiment: Antibacterial activity against Shigella flexneri assessed as concentration required to obtain a zone of inhibition of 10 mm after 18 to 24 hr by disk diffusion method; format: functional
# Pseudomonas aeruginosa [28] = experiment: Antibacterial activity against Pseudomonas aeruginosa assessed as concentration required to obtain a zone of inhibition of 5 mm after 18 to 24 hr by disk diffusion method; format: functional
# Pseudomonas aeruginosa [29] = experiment: Antibacterial activity against Pseudomonas aeruginosa assessed as zone of inhibition at 5 to 40 ug/ml after 18 to 24 hr by disk diffusion method relative to gatifloxacin; format: functional
# Candida albicans [30] = experiment: Antifungal activity against Candida albicans assessed as concentration required to obtain a zone of inhibition of 20 mm after 7 days by disk diffusion method; format: functional
# Candida albicans [31] = experiment: Antifungal activity against Candida albicans assessed as zone of inhibition at 5 to 40 ug/ml after 7 days by disk diffusion method relative to gatifloxacin; format: functional
# Fusarium solani [32] = experiment: Antifungal activity against Fusarium solani assessed as concentration required to obtain a zone of inhibition of 20 mm after 7 days by disk diffusion method; format: functional
# Fusarium solani [33] = experiment: Antifungal activity against Fusarium solani assessed as zone of inhibition at 5 to 40 ug/ml after 7 days by disk diffusion method relative to gatifloxacin; format: functional
# Proteus mirabilis [34] = experiment: Antibacterial activity against Proteus mirabilis assessed as concentration required to obtain a zone of inhibition of 10 mm after 18 to 24 hr by disc diffusion method; format: functional
# Proteus mirabilis [35] = experiment: Antibacterial activity against Proteus mirabilis assessed as concentration required to obtain a zone of inhibition of 20 mm after 18 to 24 hr by disc diffusion method; format: functional
# Escherichia coli [36] = experiment: Antibacterial activity against Escherichia coli assessed as concentration required to obtain a zone of inhibition of 10 mm after 18 to 24 hr by disk diffusion method; format: functional
# Klebsiella pneumoniae [37] = experiment: Antibacterial activity against Klebsiella pneumoniae assessed as concentration required to obtain a zone of inhibition of 20 mm after 18 to 24 hr by disk diffusion method; format: functional
# Bacillus subtilis [38] = experiment: Antibacterial activity against Bacillus subtilis assessed as concentration required to obtain a zone of inhibition of 10 mm after 18 to 24 hr by disk diffusion method; format: functional
# Shigella sp. [39] = experiment: Antibacterial activity against Shigella typhi assessed as concentration required to obtain a zone of inhibition of 5 mm after 18 to 24 hr by disc diffusion method; format: functional
# Klebsiella pneumoniae [40] = experiment: Antibacterial activity against Klebsiella pneumoniae assessed as zone of inhibition at 5 to 40 ug/ml after 18 to 24 hr by disk diffusion method relative to gatifloxacin; format: functional
# Trichophyton rubrum [41] = experiment: Antifungal activity against Trichophyton rubrum assessed as concentration required to obtain a zone of inhibition of 40 mm after 7 days by disk diffusion method; format: functional
# Citrobacter [42] = experiment: Antibacterial activity against Citrobacter assessed as concentration required to obtain a zone of inhibition of 5 mm after 18 to 24 hr by disk diffusion method; format: functional
# Trichophyton rubrum [43] = experiment: Antifungal activity against Trichophyton rubrum assessed as concentration required to obtain a zone of inhibition of 20 mm after 7 days by disk diffusion method; format: functional
compound,measurement,setting,value
C[C@@H]1CN(c2c(F)c(N)c3c(=O)c(C(=O)O)cn(C4CC4)c3c2F)C[C@H](C)N1 [SPARFLOXACIN],Activity,Bacillus subtilis [1],15 µg/mL
same,inhibition zone (IZ),Trichophyton rubrum [2],169%
same,inhibition zone (IZ),[3],110%
same,Activity,[4],13 µg/mL
same,Activity,Klebsiella pneumoniae [5],10 µg/mL
same,Activity,Klebsiella pneumoniae [6],13 µg/mL
same,Activity,Fusarium solani [7],11 µg/mL
same,Activity,Proteus mirabilis [8],10 µg/mL
same,inhibition zone (IZ),Bacillus subtilis [9],94.6%
same,Activity,Escherichia coli [10],9 µg/mL
same,inhibition zone (IZ),Escherichia coli [11],98.01%
same,Activity,Pseudomonas aeruginosa [12],15 µg/mL
same,inhibition zone (IZ),Saccharomyces cerevisiae,0%
same,Activity,Bacillus subtilis [13],12 µg/mL
same,inhibition zone (IZ),Shigella sp. [14],87%
same,inhibition zone (IZ),Citrobacter [15],42.73%
same,inhibition zone (IZ),Shigella flexneri [16],75.1%
same,Activity,Citrobacter [17],9 µg/mL
same,Activity,Shigella flexneri [18],13 µg/mL
same,inhibition zone (IZ),Staphylococcus aureus,77.2%
same,Activity,[19],14 µg/mL
same,Activity,Citrobacter [20],10 µg/mL
same,inhibition zone (IZ),Proteus mirabilis [21],90%
same,Activity,Pseudomonas aeruginosa [22],13 µg/mL
same,Activity,Candida albicans [23],17 µg/mL
same,Activity,Shigella flexneri [24],9 µg/mL
same,Activity,Escherichia coli [25],14 µg/mL
same,Activity,[26],11 µg/mL
same,Activity,Shigella flexneri [27],11 µg/mL
same,Activity,Pseudomonas aeruginosa [28],11 µg/mL
same,inhibition zone (IZ),Pseudomonas aeruginosa [29],117.6%
same,Activity,Candida albicans [30],13 µg/mL
same,inhibition zone (IZ),Candida albicans [31],176%
same,Activity,Fusarium solani [32],10 µg/mL
same,inhibition zone (IZ),Fusarium solani [33],70%
same,Activity,Proteus mirabilis [34],12 µg/mL
same,Activity,Proteus mirabilis [35],15 µg/mL
same,Activity,Escherichia coli [36],11 µg/mL
same,Activity,Klebsiella pneumoniae [37],16 µg/mL
same,Activity,Bacillus subtilis [38],13 µg/mL
same,Activity,Shigella sp. [39],9 µg/mL
same,inhibition zone (IZ),Klebsiella pneumoniae [40],96.1%
same,Activity,Trichophyton rubrum [41],24 µg/mL
same,Activity,Citrobacter [42],8 µg/mL
same,Activity,Trichophyton rubrum [43],20 µg/mL
